{
  "source": "patent US20110009335A1",
  "about": "“Anticancer Treatments” (priority 2008, published 2011)",
  "key": {"[1]": {"tested_on": "CAKI-1 human renal tumor xenograft", "assay": "Aplidine with sunitinib, CAKI-1 xenograft in athymic nude mice (Example 2)", "type": "in vivo", "conditions": "doses and schedules tested", "protocol": "(§1) Female athymic nude mice (Harlan Sprague Dawley, Madison, Wis.) were utilized for all experiments. Mice were implanted with tumor fragments or a cell suspension when mice were 5 weeks of age. Animals were housed in ventilated rack caging, 5 mice per cage, with food and water ad libitum. The mice were acclimated for 1 week prior to being implanted with tumor fragments or cell suspensions.\nCells from in vitro passage 4-20 were implanted SC into study mice: 5×10^6 cells/mouse in 0.2 ml 50% Matrigel/50% medium without antibiotics or serum, using a 23 G needle and 1 cc syringe. Bacterial cultures were performed on aliquots of the cells prepared for implantation.\n(§2) Tumor measurements were determined as disclosed in Example 1.\nBody weights were recorded on treatment days and when tumor sizes were measured. In those days wherein the two drugs were administered the same day, the combination therapy groups were treated by co-administering the two drugs at the same time, with no attempt to sequence the treatments. […]\n(§3) Tumor size measurements were recorded twice weekly from the treatment initiation until the termination of the study.\n(§4) Mean, standard deviation and standard error of the mean were determined for tumor volume for all animal groups at all assessments. […]"}, "[2]": {"tested_on": "MRI-H-121 human renal tumor xenograft", "assay": "Aplidine with sunitinib, MRI-H-121 xenograft in athymic nude mice (Example 2)", "type": "in vivo", "conditions": "doses and schedules tested", "protocol": "as §1, §2\n(§5) Body weights were recorded on treatment days and when tumor sizes were measured. In those days wherein the two drugs were administered the same day, the combination therapy groups were treated by co-administering the two drugs at the same time, with no attempt to sequence the treatments.\n(§6) Aplidine was provided in the form of vials of lyophilized aplidine powder which was reconstituted in Cremophor EL/ethanol/water (CEW) 15/15/70 to a concentration of 0.5 mg/ml. The aplidine solution in CEW was diluted in 0.9% Saline to the dosing formulation concentrations, being the final proportion of CEW of 0.18/0.18/0.84. […]\nas §3, §4"}, "[3]": {"tested_on": "A498 human renal tumor xenograft", "assay": "Aplidine with sunitinib, A498 xenograft in athymic nude mice (Example 2)", "type": "in vivo", "conditions": "doses tested; sunitinib 40 mg/kg", "protocol": "as §1, §2, §5, §6, §3, §4"}, "[4]": {"conditions": "mouse, in vivo", "procedure": "Body weight effects were determined by comparing each mouse body weight measurement with the initial body weight (first day of treatment).\nThe NCI activity criterion of body weight loss >20% was used to gauge compound toxicity.\nBody weight effects were determined by comparing each mouse body weight measurement with the initial body weight (first day of treatment). The NCI activity criterion of body weight loss >20% was used to gauge compound toxicity."}},
  "data": [
    {"smiles": "CCN(CC)CCNC(=O)c1c(C)[nH]c(/C=C2\\C(=O)Nc3ccc(F)cc32)c1C", "note": "[sunitinib]", "values": [
      {"measurement": "antitumor activity as single agent (monotherapy)", "setting": "[1]", "value": "inactive"},
      {"measurement": "antitumor activity as single agent (monotherapy)", "setting": "[2]", "value": "refractory"},
      {"measurement": "antitumor activity as single agent (monotherapy)", "setting": "[3]", "value": "did not reach the NCI criteria"},
      {"measurement": "effect on body weight / toxicity", "setting": "[4]", "value": "did not cause a significant decline in mean body weight"}
    ]}
  ]
}
